# Test results from US12297457B2, “Esophageal tissue and/or organoid compositions and methods of making same” (Children's Hospital Medical Center, priority 2017, dated 2025).
# “Also recorded” adds a separate entry of the source.
# Key:
# Type in all cases: cell-based, human
# [1] = test system: CDX2-induced HEOs; assay: Notch inhibition in CDX2-induced HEOs (qPCR, IF); settings: d58 HEOs
# Protocol: Human embryonic stem cell (hESC) line H1 (WA01, person) were purchased from WiCell. iPSC line iPS106 was generated in-house and approved by the institutional review board at CCHMC. All hPSCs were maintained on feeder-free cultures: cells were plated on hESC-qualified Matrigel (BD Biosciences, San Jose, Calif.) and maintained at 37° C. with 5% CO2 with daily replacement of mTeSR1 media (STEMCELL Technologies, Vancouver, Canada); cells were passaged routinely every 4 days using Dispase (STEMCELL Technologies). The HA-tagged SOX2, CDX2, or FANCA dox-inducible lines were generated by first cloning the human SOX2 ORF, CDX2 ORF, or FANCA ORF into pINDUCER20 (respectively) (Addgene #44012, Meerbrey et al., 2011). Next, lentivirus was generated with help of the Viral Vector Core Facility at CCHMC. The lentivirus for HA-SOX2 and CDX2 were transduced into hESCs with 2 μL of virus; these lines were maintained on selection with mTeSR1 and G418 (500 μg mL-1, ThermoFisher Scientific). The lentivirus for FANCA were transduced prior to the iPS106 line generation, as FANCA is required for maintenance of hPSC properties. The hESC H1 line (and transduced derivatives) was used in all experiments excluding Fanconi Anemia modeling in HEOs, which used the iPS106 line.
# (§1) For the generation of anterior foregut spheroids, from definitive endoderm, cells were treated with Wnt3a (500 ng mL-1, R&D systems) for 2 days, and FGF4 (500 ng mL-1, R&D systems), Noggin (200 ng mL-1) for 3 days in RPMI 1640 with 2% dFBS. Three-dimensional culture and differentiation of anterior foregut spheroids into human esophageal organoids were obtained as described above.
# Tissue cultures were fixed with 4% paraformaldehyde at either room temperature for 15 minutes (for monolayer cultures), or 4° C. for overnight (for organoids). […]
# Monolayer cultures and organoids were harvested in total, including the plated/embedding matrigel. […] For qRT-PCR, Applicant used Quantitect SYBR-Green master mix (Qiagen) and ran the reaction on a QuantStudio 6 machine (ThermoFisher Scientific).
# [2] = test system: foregut spheroids; assay: Anterior-posterior patterning of foregut spheroids (qPCR, IF); settings: for regional identity of foregut spheroids (HNF1β, SOX2, PROX1, HNF6): shorter duration of treatment following DE formation, day 6 spheroids
# Protocol: Confluent hPSC cultures were treated with Acutase (STEMCELL Technologies) to resuspend as single cells in mTeSR1 and Y-27632 (10 μM, Tocris) and plated on Matrigel. On the following day, differentiation into definitive endoderm was carried out as previously described (McCracken et al., 2014). Briefly, cells were treated with Activin A (100 ng mL-1, R&D systems, Minneapolis, Minn.) and BMP4 (50 ng mL-1, R&D systems) on the first day in RPMI 1640 media (Life Technologies). Cells in the following two days were treated with only Activin A (100 ng mL-1) in RPMI 1640 with increasing concentrations 0.2% and 2% of HyClone defined fetal bovine serum (dFBS, GE Healthcare Life Sciences).
# For anterior foregut monolayer cultures, cells were treated for 3 days in Noggin (200 ng mL-1) in RPMI 1640 with 2% dFBS, with all-trans retinoic acid (2 μM, Sigma, St. Louis, Mo.) the 3rd day.
# (§2) Alternately, for the generation of anterior foregut spheroids, from definitive endoderm, cells were treated with FGF4 (500 ng mL-1, R&D systems), Noggin (200 ng mL-1) for 3 days in RPMI 1640 with 2% dFBS. Additional factors were tested during this time (described in results), such as CHIR99021 (“chiron” or “chr”, 2 μM, Tocris), Wnt3a (500 ng mL-1, R&D systems), SB431542 (10 μM, Tocris), DEAB (10 μM, Sigma), and retinoic acid (2 μM).
# Tissue cultures were fixed with 4% paraformaldehyde at either room temperature for 15 minutes, 4° C. for 2 hours for cryosectioning, or 4° C. overnight for paraffin embedding/sectioning and mouse embryos. For paraffin embedding and sectioning, following fixation, tissues were dehydrated and embedded into paraffin blocks. Afterwards, paraffin-sectioned slides were deparaffinized and subjected to antigen retrieval in 10 mM sodium citrate for 30 minutes prior to staining. For cryosectioning, tissues were thoroughly washed in PBS, left in 30% sucrose overnight, embedded in OCT compound (VWR), and sectioned at a thickness of 8 μm. Commonly, slides were then permeabilized with 0.5% TritonX-100 in PBS for 10 minutes, blocked in 5% normal donkey serum (Jackson ImmunoResearch) for 1 hour, and incubated in primary antibody overnight at 4° C. On the next day, slides were thoroughly washed in PBS, incubated in secondary antibody (at 1:500) for 1 hour, and then thoroughly washed again. For EdU visualization, Applicant used the Click-iT EdU Alexa Fluor 488 Imaging Kit (Invitrogen) prior to blocking. For wholemount immunofluorescence staining, embryos were placed in 100% methanol immediately after fixation. Embryos were then permeabilized with Dent's Bleach (4:1:1 MeOH:DMSO:30% H2O2) for 2 hours at room temperature, rehydrated with methanol washes, and blocked for several hours at room temperature to overnight at 4° C. Primary antibodies were applied and embryos incubated overnight at 4° C. Then, embryos were thoroughly washed in 0.1% TritonX-100 in PBS before incubating in secondary antibodies overnight at 4° C. Finally, embryos were washed again, dehydrated with methanol washes, and cleared with Murray's Clear (2:1 benzyl benzoate:benzyl alcohol, Sigma) at least 15 minutes prior to imaging. For a list of antibodies and dilutions used, please see Table 2.
# Spheroid and organoids were harvested in total, including the embedding matrigel. Collagen plugs from the organotypic raft cultures were first removed from the transwell on day 14, and subsequently harvested in total. Total RNA was isolated using the NucleoSpin RNA kit (Macherey-Nagel) and reverse transcribed to cDNA using the SuperScript VILO cDNA synthesis kit (ThermoFisher Scientific). For qRT-PCR, Applicant used Quantitect SYBR-Green master mix (Qiagen) and ran the reaction on a QuantStudio 6 machine (ThermoFisher Scientific). For a list of primers used, please see Table 1.
# [3] = test system: HEOs; assay: IL-13 treatment of HEOs, eosinophilic esophagitis model (qPCR, Western blot, IF, EdU, H&E, electron microscopy)
# Protocol: (§3) Anterior foregut spheroids were transferred into 50 μL droplets of Matrigel, and are cultured for 3-58 days in the base (“Gut”) media of Advanced DMEM/F12 (ThermoFisher Scientific) supplemented with B27 supplement (1×, ThermoFisher Scientific), N2 supplement (1×, ThermoFisher Scientific), HEPES (13 mM, ThermoFisher Scientific), L-Glutamine (2 mM ThermoFisher Scientific), penicillin/streptomycin (1×, ThermoFisher Scientific), and EGF (100 ng mL^−1, R&D systems). In addition to this base media, the first three days were supplemented with Noggin (200 ng mL^−1), FGF10 (50 ng mL^−1), and CultureOne supplement (1×, ThermoFisher Scientific). FGF10 and CultureOne supplementation is continued until the end of the first week in three-dimensional culture. Media was replaced every 3-4 days. For EdU labeling, media was supplemented with EdU (10 μM Invitrogen) for a defined period of time, and was removed by washing with sterile PBS twice before replacing with media without EdU.
# as §1
# (§4) Tissue cultures were fixed with 4% paraformaldehyde at either room temperature for 15 minutes (for monolayer cultures), or 4° C. for overnight (for organoids). Tissues were thoroughly washed in PBS and stained for monolayer cultures, while organoids were thoroughly washed and then left in 30% sucrose overnight, embedded in OCT compound (VWR), and sectioned at a thickness of 8 μm. Slides were then permeabilized with 0.5% TritonX-100 in PBS for 10 minutes, blocked in 5% normal donkey serum (Jackson ImmunoResearch) for 1 hour minimum, and incubated in primary antibody overnight at 4° C. On the next day, slides were thoroughly washed in PBS, incubated in secondary antibody (at 1:500) for 1 hour, and then thoroughly washed again. For EdU visualization, the Click-iT EdU Alexa Fluor 488 Imaging Kit (Invitrogen) was used prior to blocking.
# (§5) Monolayer cultures and organoids were harvested in total, including the plated/embedding matrigel. Total RNA was isolated using the NucleoSpin RNA kit (Macherey-Nagel) and reverse transcribed to cDNA using the SuperScript VILO cDNA synthesis kit (ThermoFisher Scientific). For qRT-PCR, Applicant used Quantitect SYBR-Green master mix (Qiagen) and ran the reaction on a QuantStudio 6 machine (ThermoFisher Scientific).
# [4] = test system: AFG spheroids; assay: Dorsal-ventral patterning / respiratory induction of anterior foregut spheroids (qPCR, IF); settings: day 6 AFG spheroids treated 3 days; analysed day 9
# Protocol: as §2
# Anterior foregut spheroids were transferred into 50 μL droplets of Matrigel, and are cultured for 3-58 days in the base (“Gut”) media of Advanced DMEM/F12 (ThermoFisher Scientific) supplemented with B27 supplement (1×, ThermoFisher Scientific), N2 supplement (1×, ThermoFisher Scientific), HEPES (13 mM, ThermoFisher Scientific), L-Glutamine (2 mM ThermoFisher Scientific), penicillin/streptomycin (1×, ThermoFisher Scientific), and EGF (100 ng mL^−1, R&D systems). In addition to this base media, the first three days were supplemented with Noggin (200 ng mL^−1), FGF10 (50 ng mL^−1), and CultureOne supplement (1×, ThermoFisher Scientific). […]
# Spheroid and organoids were harvested in total, including the embedding matrigel. […] For qRT-PCR, Applicant used Quantitect SYBR-Green master mix (Qiagen) and ran the reaction on a QuantStudio 6 machine (ThermoFisher Scientific). […]
# [5] = test system: HEOs; assay: BMP activation in late stage HEOs (IF, EdU, qPCR)
# Protocol: as §3, §1, §4, §5
# [6] = 6-week-old HEOs, BMP4 100 ng/mL for additional 2 weeks
molecule,measurement,setting,value
C[C@H](NC(=O)Cc1cc(F)cc(F)c1)C(=O)N[C@H](C(=O)OC(C)(C)C)c1ccccc1 [DAPT],KRT5 expression,[1]; CDX2-induction plus DAPT,further downregulated
same,"KRT13 expression, effect added to CDX2-induction",[1]; CDX2-induction plus DAPT,does not appear to be a synergistic effect
same,HESS (Notch target gene) expression,[1]; qPCR,downregulated
CCN(CC)c1ccc(C=O)cc1 [DEAB],TP63 and pharyngeal marker expression of spheroids,[2]; cultures containing DEAB (blocking RA synthesis),spheroids with minimal TP63 expression and increased levels of the pharyngeal markers PAX9 and OTX2
"CC1=C(/C=C/C(C)=C/C=C/C(C)=C/C(=O)O)C(C)(C)CCC1 [RA, all-trans retinoic acid]",marker expression after RA treatment,[2]; 1 day of RA,promotes expression of TP63 and KRT4 and not posterior foregut markers GATA4 and PDX1; also recorded: spheroids that express TP63
same,marker expression after RA treatment,[2]; RA for 4 days,"express posterior foregut markers, GATA4 and PDX1"
"Cc1c[nH]c(-c2cnc(NCCNc3ccc(C#N)cn3)nc2-c2ccc(Cl)cc2Cl)n1 [chiron, CHIR99021]","gene expression profile of spheroids, chiron versus Wnt3a","[2]; one day of chiron treatment, qPCR",same gene expression profile as those generated with 2 days of Wnt3a
same,"regional identity of foregut spheroids (HNF1β, SOX2, PROX1, HNF6)",[2],"formation of anterior foregut (AFG) spheroids expressing HNF1β and SOX2, with low levels of posterior foregut markers PROX1 and HNF6"
IL-13: a cytokine known to enact broad changes in the esophagus,epithelial morphology by electron microscopy,[3]; IL-13 100 ng/mL for 2 weeks,increased spaces between individual cells and a decrease in cell-cell contacts
same,EdU incorporation in the basal-most p63+ cells,"[3]; IL-13 100 ng/mL for 2 weeks, EdU 2 days",increased
same,BMP antagonists NOG and FST expression,"[3]; IL-13 100 ng/mL for 2 weeks, qPCR",did not upregulate
same,epithelial morphology,"[3]; IL-13 100 ng/mL for 2 weeks, IF, H&E",dilated intercellular spaces suprabasally
same,late differentiation and structural proteins,"[3]; IL-13 100 ng/mL, 1-2 weeks","downregulated late differentiation and structural proteins DSG1, IVL, and CRNN"
same,PTCH1 expression (read-out for hedgehog signaling),[3]; IL-13 alone,upregulates
same,BMP target gene ID3 expression,"[3]; day 62 HEOs, qPCR",mild increase
same,IL-13 target gene response,"[3]; extended treatment (100 ng/mL, 1 week), Western blot",maintained upregulation of some target genes SERPINB13 and CDH26
same,IL-13 target gene response,"[3]; short duration (2 days prior to harvest), day 62 HEOs, qPCR","validated the response of target genes CCL26, CDH26, CAPN14, and SERPINB4"
"Noggin: recombinant human Noggin, used to inhibit BMP signaling (protein, UniProt Q13253 28-232, looked up) Noggin: QHYLHIRPAPSDNLPLVDLIEHPDPIFDPKEKDLNETLLRSLLGGHYDPGFMATSPPEDRPGGGGGAAGGAEDLAELDQLLRQRPSGAMPSEIKGLEFSEGLAQGKKQRLSKKLRRKLQMWLWSQTFCPVLYAWNDLGSRFWPRYVKVGSCFSKRSCSVPEGMVCKPSKSVHLTVLRWRCQRRGGQRCGWIPIQYPIISECKCSC","dorsal-ventral marker expression (NKX2-1, SOX2, MNX1, KRT4, TP63)",[4],"dorsalized spheroids, as marked by elevated levels of SOX2, MNX1, KRT4, and TP63"
"Wnt3a: recombinant human Wnt3a, Wnt ligand (protein, UniProt P56704 19-352, looked up) Protein Wnt-3a: SYPIWWSLAVGPQYSSLGSQPILCASIPGLVPKQLRFCRNYVEIMPSVAEGIKIGIQECQHQFRGRRWNCTTVHDSLAIFGPVLDKATRESAFVHAIASAGVAFAVTRSCAEGTAAICGCSSRHQGSPGKGWKWGGCSEDIEFGGMVSREFADARENRPDARSAMNRHNNEAGRQAIASHMHLKCKCHGLSGSCEVKTCWWSQPDFRAIGDFLKDKYDSASEMVVEKHRESRGWVETLRPRYTYFKVPTERDLVYYEASPNFCEPNPETGSFGTRDRTCNVSSHGIDGCDLLCCGRGHNARAERRREKCRCVFHWCCYVSCQECTRVYDVHTCK","regional identity of foregut spheroids (HNF1β, SOX2, PROX1, HNF6)",[2],"formation of anterior foregut (AFG) spheroids expressing HNF1β and SOX2, with low levels of posterior foregut markers PROX1 and HNF6"
"BMP4: recombinant human BMP4 (protein, UniProt P12644 293-408, looked up) Bone morphogenetic protein 4: SPKHHSQRARKKNKNCRRHSLYVDFSDVGWNDWIVAPPGYQAFYCHGDCPFPLADHLNSTNHAIVQTLVNSVNSSIPKACCVPTELSAISMLYLDEYDKVVLKNYQEMVVEGCGCR","state of remaining basal cells (pSMAD1/5/9, p63, SOX2)",[5]; [6],"have active BMP signaling (pSMAD1/5/9+) and express p63, but loss expression of SOX2"
same,stratification and differentiation markers,[5]; [6],loss of stratification and expression of differentiation markers
same,EdU incorporation,"[5]; BMP4 treated HEOs, day 62",minimal EdU incorporation
same,CDX2 expression,"[5]; BMP4 treated HEOs, data not shown",unchanged
